Test results reported in US7288653B2, “Inhibitors of proton-gated cation channels and their use in the treatment of ischaemic disorders” (PainCeptor Pharma Corporation, priority 1999, dated 2007).
pIC50: −log10 of the molar value.

System: proton-gated cation channels in cultured mouse cortical neurons
Experiment: Whole cell patch clamp of proton-gated currents in cultured mouse cortical neurons
Assay type: cell-based
Protocol: The following experiments were performed in voltage-or current clamp using conventional whole cell patch clamp methods [Hamill O P, Marty A, Neher E, Sakmann B and Sigworth F J: Improved patch-clamp techniques for high-resolution current recording from cells and cell-free membrane patches; Pflügers Arch. 1981 39 85-100]. The following salt solutions were used (where nothing else stated, the chemicals are available from Sigma): NaCl (140 mM), KCl (4 mM), CaCl2 (2 mM), MgCl2 (1 mM), Sucrose (30 mM; Available from Fluka Chemie, Buchs, Switzerland), HEPES (10 mM, pH 6-7.4). Solutions with pH<6 were buffered with MES (10 mM) in stead of HEPES. Solutions with no added Ca^2+ contained 3 mM MgCl2. Solutions with no added Na^+ contained 140 mM N-methyl-D-glucamine. For voltage clamp experiments, the extracellular solutions were added Tetrodotoxin (0.0003 mM; Available from Alomone Labs, Jerusalem, Israel) and Bicuculline Methiodide (0.005 mM; Available from RBI, MA, USA).
Intracellular solution for voltage clamp experiments: CsCl (120 mM), CsF (20 mM), MgCl2 (2 mM), EGTA (10 mM), HEPES (10 mM; pH=7.2). […]
For voltage clamp experiments, the cells were held at a holding voltage of −60 mV and at the start of each experiment the current was continuously measured for at least 30 sec. to ensure a stable leak current. […]

N=C(N)NC(=O)c1nc(Cl)c(N)nc1N [Amiloride, N-amidino-3,5-diamino-6-chloropyrazine-2-carboxamide]
Effect on proton-gated currents (100 μM Amiloride, saline at pH 6, voltage clamp −60 mV): inhibited | pIC50 (cultured mouse cortical neuron, voltage clamp −60 mV, saline at pH 6, Hill equation fit, read-out: IC50, inhibition of proton-gated currents): 5.21
